Activity calls are given as the source filed them. The calls are words filed in the database; no cut-off is given here.
Assays:
[1] = target: T1, Extracellular calcium-sensing receptor (Homo sapiens, UniProt P41180); assay: Activity at human CaSR expressed in HEK293 cells assessed as calcium release by FLIPR assay; assay type: functional, cell-based
T1 sequence (P41180 whole entry): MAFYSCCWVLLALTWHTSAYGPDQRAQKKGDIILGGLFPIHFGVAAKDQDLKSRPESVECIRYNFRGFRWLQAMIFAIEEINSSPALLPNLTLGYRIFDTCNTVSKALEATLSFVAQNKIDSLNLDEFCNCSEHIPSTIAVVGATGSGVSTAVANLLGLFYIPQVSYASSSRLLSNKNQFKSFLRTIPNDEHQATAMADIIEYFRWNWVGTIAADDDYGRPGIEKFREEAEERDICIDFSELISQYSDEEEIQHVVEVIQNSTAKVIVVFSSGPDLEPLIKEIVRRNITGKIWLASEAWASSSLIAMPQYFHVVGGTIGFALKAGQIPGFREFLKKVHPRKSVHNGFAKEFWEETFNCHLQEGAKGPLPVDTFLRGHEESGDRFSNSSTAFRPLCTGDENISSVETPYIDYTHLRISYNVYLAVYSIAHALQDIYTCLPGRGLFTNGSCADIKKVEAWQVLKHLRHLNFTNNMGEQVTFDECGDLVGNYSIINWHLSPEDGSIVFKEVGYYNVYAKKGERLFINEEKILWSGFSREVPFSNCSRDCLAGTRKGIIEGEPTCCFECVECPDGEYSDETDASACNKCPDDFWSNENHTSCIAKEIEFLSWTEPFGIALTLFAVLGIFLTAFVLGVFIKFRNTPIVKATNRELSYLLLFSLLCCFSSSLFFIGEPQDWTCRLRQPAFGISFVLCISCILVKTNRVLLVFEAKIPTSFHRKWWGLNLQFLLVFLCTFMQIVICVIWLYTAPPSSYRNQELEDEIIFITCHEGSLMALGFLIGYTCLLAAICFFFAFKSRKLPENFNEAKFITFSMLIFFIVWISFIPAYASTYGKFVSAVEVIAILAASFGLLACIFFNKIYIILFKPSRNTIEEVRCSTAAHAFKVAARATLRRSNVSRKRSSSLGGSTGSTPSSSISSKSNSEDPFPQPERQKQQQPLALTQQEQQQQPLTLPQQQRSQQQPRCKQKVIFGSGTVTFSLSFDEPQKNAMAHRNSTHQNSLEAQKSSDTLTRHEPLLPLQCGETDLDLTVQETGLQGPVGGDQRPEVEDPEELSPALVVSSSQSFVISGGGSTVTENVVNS

[2] = test system: Rattus norvegicus; assay: Oral bioavailability in Sprague-Dawley rat at 2 mg/kg; assay type: ADME, organism-based; settings: in vivo
[3] = Volume of distribution at steady state in Sprague-Dawley rat at 0.5 mg/kg, iv; assay type: ADME, organism-based; parameters: dose 0.5 mg/kg, route intravenous; settings: in vivo, read-out: Vdss
[4] = test system: Rattus norvegicus; assay: Clearance in Sprague-Dawley rat at 0.5 mg/kg, iv; assay type: ADME, organism-based; parameters: dose 0.5 mg/kg, route intravenous; settings: in vivo
[5] = test system: Rattus norvegicus; assay: AUC in Sprague-Dawley rat at 2 mg/kg, po; assay type: ADME, organism-based, Plasma; parameters: dose 2 mg/kg, route oral; settings: in vivo
[6] = test system: Rattus norvegicus; assay: Cmax in Sprague-Dawley rat at 2 mg/kg, po; assay type: ADME, organism-based; parameters: dose 2 mg/kg, route oral; settings: in vivo
[7] = test system: Rattus norvegicus; assay: Inhibition of hyperparathyroidism in Sprague-Dawley rat pharmacodynamic model assessed as decrease in PTH levels at 30 mg/kg, po; assay type: functional, organism-based; parameters: dose 30 mg/kg; settings: Thyroid gland
[8] = Mean residence time in Sprague-Dawley rat at 0.5 mg/kg, iv; assay type: ADME, organism-based; parameters: dose 0.5 mg/kg, route intravenous; settings: in vivo
[9] = test system: Rattus norvegicus; assay: Inhibition of hyperparathyroidism in Sprague-Dawley rat pharmacodynamic model assessed as PTH levels at 3 mg/kg, po; assay type: functional

For `COc1cc([C@@H](C)N[C@H](C)c2cccc(Cl)c2)nn1-c1ccc(C(F)(F)F)cc1`, the EC50 [1] was 41 nM.

In the case of `C[C@@H](NCc1ccn(-c2ccccc2)n1)c1ccccc1`, the EC50 [1] is reported as 1580 nM.

With `CC[C@@H](N[C@H](C)c1ccccc1)c1ccn(-c2ccc(C(F)(F)F)cc2)n1` the EC50 [1] was 1180 nM.

With `COc1cc([C@@H](C)N[C@H](C)c2cccc(Cl)c2)nn1-c1ccc(-c2nnn[nH]2)cc1` the EC50 [1] was greater than 5000 nM.

`CC(C)[C@@H](N[C@H](C)c1ccccc1)c1ccn(-c2ccc(C(F)(F)F)cc2)n1` gave an EC50 [1] of 2340 nM.

With `COc1cc([C@@H](C)N[C@H](C)c2ccccc2)nn1-c1ccc(C(F)(F)F)cc1` the EC50 [1] was 70 nM.

With `C[C@@H](N[C@H](C)c1ccn(-c2ccc(C(F)(F)F)cc2)n1)c1cccc(F)c1` the EC50 [1] was 148 nM.

For `C[C@@H](N[C@H](C)c1ccn(-c2ccc(C(F)(F)F)cc2)n1)c1cccc(Cl)c1`, the EC50 [1] was 92 nM.

In the case of `C[C@@H](NCc1nc(-c2ccccc2)c[nH]1)c1ccccc1`, the EC50 [1] is reported as greater than 5000 nM.

For `C[C@@H](NCc1nc(-c2ccccc2)cs1)c1ccccc1`, the EC50 [1] was greater than 5000 nM.

Molecule `COc1cc([C@@H](C)N[C@H](C)c2cccc(Cl)c2)nn1-c1ccc(C(=O)O)cc1` has an EC50 [1] of 1920 nM.

With `COc1cccc([C@@H](C)NCCCc2ccccc2Cl)c1` [TECALCET] the F [2] was 5%, the Vd [3] was 6.8 L/kg and the CL [4] was 65 mL/min/kg. The AUC [5] was 22 ng·h/mL, the Cmax [6] was 4.2 ng/mL and the Activity [7] was “Active”. It also gave an EC50 [1] of 194 nM and an MRT [8] of 1.74 h.

With `C[C@@H](NCc1cnc(-c2ccccc2)s1)c1ccccc1` the EC50 [1] was greater than 5000 nM.

For `C[C@@H](NCc1nc(-c2ccccc2)co1)c1ccccc1`, the EC50 [1] was greater than 5000 nM.

In the case of `COc1cc([C@@H](C)N[C@H](C)c2cccc(Cl)c2)nn1-c1cccc(Cl)c1`, the EC50 [1] is reported as 57 nM.

`C[C@@H](NCc1nc(-c2ccccc2)cn1C)c1ccccc1` showed an EC50 [1] greater than 5000 nM.

`C[C@@H](N[C@H](C)c1ccn(-c2ccc(C(F)(F)F)cc2)n1)c1ccccc1` showed an EC50 [1] of 233 nM.

Work on `COc1cc([C@@H](C)N[C@H](C)c2cccc(Cl)c2)nn1-c1ccc(Br)cc1` yielded an F [2] of 24%, a Vd [3] of 7 L/kg and a CL [4] of 21.7 mL/min/kg. For the same molecule, the AUC [5] was 444 ng·h/mL, the EC50 [1] was 23 nM and the MRT [8] was 11.8 h. The Activity [9] was less than 3 pg/mL.

— ChEMBL document CHEMBL1154628, “Discovery and optimization of substituted 1-(1-phenyl-1H-pyrazol-3-yl)methanamines as potent and efficacious type II calcimimetics” (J Med Chem, 2009)
